Laboratory results taken from ChEMBL document CHEMBL1201862, “PubChem BioAssay data set” (2004).
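96-well plates; 48 h exposure; 5 concentrations. Endpoints by linear interpolation between flanking doses. Not reached: highest tested concentration assigned. GI50 is the concentration that inhibits growth by half.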 Active and inactive are the calls of the source. Rule as the data show it: active = GI50 up to about 1.1 µM and inactive = higher. Where a SMILES comes first, the peptide text is derived from it. [ ]: non-standard residue; d: D form. The star is where a group is joined. Phe(4-NO2) = N[CH](Cc1ccc([N+](=O)[O-])cc1)C(=O)O; Cbz = O=C(OCc1ccccc1)*

Key:
Assay in all cases: NCI-60 cell line screen, 48 h
[1] = test system: UO-31
[2] = test system: CCRF-CEM
[3] = test system: HCC 2998
[4] = test system: NCI-H23
[5] = test system: OVCAR-4
[6] = test system: SF-539
[7] = test system: SK-OV-3
[8] = test system: HCT-116
[9] = test system: MOLT-4
[10] = test system: DU-145
[11] = test system: HT-29
[12] = test system: UACC-257
[13] = test system: SNB-75
[14] = test system: 786-0
[15] = test system: CAKI-1
[16] = test system: NCI-H460
[17] = test system: MCF7
[18] = test system: A549
[19] = test system: NCI-H226
[20] = test system: MDA-MB-435

SMILES | GI50 [1] | GI50 [2] | GI50 [3] | GI50 [4] | GI50 [5] | GI50 [6] | GI50 [7] | GI50 [8] | GI50 [9] | GI50 [10] | GI50 [11] | GI50 [12] | GI50 [13] | GI50 [14] | GI50 [15] | GI50 [16] | GI50 [17] | GI50 [18] | GI50 [19] | GI50 [20]
COc1ccc2nc3n(c2c1)C(=O)c1ccccc1-3 | > 100 µM (inactive) | > 100 µM (inactive) | > 100 µM (inactive) | > 100 µM (inactive) | > 100 µM (inactive) | > 100 µM (inactive) | 15.1 µM (inactive) | > 100 µM (inactive) | > 100 µM (inactive) | > 100 µM (inactive) | > 100 µM (inactive) | > 100 µM (inactive) | > 100 µM (inactive) | > 100 µM (inactive) | > 100 µM (inactive) | > 100 µM (inactive) | > 100 µM (inactive) | > 100 µM (inactive) | > 100 µM (inactive) | 
CC(CCC(=O)O)(c1ccc(O)cc1)c1ccc(O)cc1 | > 100 µM (inactive) |  |  | > 100 µM (inactive) | > 100 µM (inactive) |  |  | > 100 µM (inactive) | > 100 µM (inactive) | > 100 µM (inactive) | > 100 µM (inactive) | > 100 µM (inactive) |  | > 100 µM (inactive) | > 100 µM (inactive) | > 100 µM (inactive) |  | > 100 µM (inactive) | > 100 µM (inactive) | > 100 µM (inactive)
CCCCN(CCCC)CC(C(=O)Nc1ccccc1)/C(C)=N\NC(=O)c1ccncc1 (configuration not stated) | 28.5 µM (inactive) |  | > 100 µM (inactive) | > 100 µM (inactive) | > 100 µM (inactive) | > 100 µM (inactive) | > 100 µM (inactive) | 92 µM (inactive) | > 100 µM (inactive) |  | > 100 µM (inactive) | > 100 µM (inactive) | 16.9 µM (inactive) | > 100 µM (inactive) | > 100 µM (inactive) | 46 µM (inactive) |  | > 100 µM (inactive) | > 100 µM (inactive) | 
Cc1nc2ccccc2n1Cc1nnc(N)o1 | > 100 µM (inactive) | > 100 µM (inactive) | > 100 µM (inactive) | > 100 µM (inactive) |  | > 100 µM (inactive) | > 100 µM (inactive) | > 100 µM (inactive) | > 100 µM (inactive) | > 100 µM (inactive) | > 100 µM (inactive) | > 100 µM (inactive) | > 100 µM (inactive) | > 100 µM (inactive) |  | > 100 µM (inactive) | > 100 µM (inactive) | 53.3 µM (inactive) |  | 0.1 µM (active)
CCn1c(=O)nc2n(-c3ccccc3)c3ccccc3nc-2c1=O | 35.7 µM (inactive) | 21.1 µM (inactive) | 21 µM (inactive) | 25.4 µM (inactive) | 12.6 µM (inactive) | 14.2 µM (inactive) | > 100 µM (inactive) |  | 17.3 µM (inactive) |  |  | 16.7 µM (inactive) | 82.8 µM (inactive) | 27.9 µM (inactive) | 12.5 µM (inactive) | 13.3 µM (inactive) |  | 17.2 µM (inactive) | 20 µM (inactive) | 
C=CCN(N=O)C(=O)NCCCC(NC(C)=O)C(=O)NCc1ccccc1 (configuration not stated) | > 100 µM (inactive) | > 100 µM (inactive) |  | > 100 µM (inactive) | > 100 µM (inactive) | 98.2 µM (inactive) | > 100 µM (inactive) |  | > 100 µM (inactive) |  | > 100 µM (inactive) | > 100 µM (inactive) | > 100 µM (inactive) | > 100 µM (inactive) | > 100 µM (inactive) | > 100 µM (inactive) |  | > 100 µM (inactive) | > 100 µM (inactive) | 
CC1(C)N=C(Oc2ccccc2)n2nccc2N1 | > 100 µM (inactive) | > 100 µM (inactive) | > 100 µM (inactive) | > 100 µM (inactive) | > 100 µM (inactive) | > 100 µM (inactive) | > 100 µM (inactive) | 51.9 µM (inactive) | > 100 µM (inactive) |  | > 100 µM (inactive) | > 100 µM (inactive) | > 100 µM (inactive) | 59.4 µM (inactive) | > 100 µM (inactive) | 75 µM (inactive) |  | > 100 µM (inactive) | > 100 µM (inactive) | 
O=c1[nH]c2cccccc-2c1-c1nc2ccccc2[nH]1 | 31.1 µM (inactive) | 25.5 µM (inactive) | 38.7 µM (inactive) | 31.3 µM (inactive) | 20.6 µM (inactive) | 22.4 µM (inactive) | 20.1 µM (inactive) | 19.8 µM (inactive) |  |  | 52.2 µM (inactive) | > 100 µM (inactive) | 12.2 µM (inactive) | 18.2 µM (inactive) | 20.4 µM (inactive) | 7.01 µM (inactive) |  | 25 µM (inactive) | 11.1 µM (inactive) | 
COc1cc(/C=N/n2c(C)n[nH]c2=O)cc(OC)c1OC | 84.3 µM (inactive) | 89.5 µM (inactive) | > 100 µM (inactive) | > 100 µM (inactive) | > 100 µM (inactive) | > 100 µM (inactive) | > 100 µM (inactive) | > 100 µM (inactive) | > 100 µM (inactive) |  | 90.4 µM (inactive) | > 100 µM (inactive) | > 100 µM (inactive) | > 100 µM (inactive) | > 100 µM (inactive) | > 100 µM (inactive) | > 100 µM (inactive) | > 100 µM (inactive) | > 100 µM (inactive) | 62.5 µM (inactive)
CCOC(=O)C(C)(Cc1ccc(O)cn1)NC(=O)c1ccccc1 (configuration not stated) | > 100 µM (inactive) | > 100 µM (inactive) | > 100 µM (inactive) | > 100 µM (inactive) | > 100 µM (inactive) | > 100 µM (inactive) | > 100 µM (inactive) | > 100 µM (inactive) | > 100 µM (inactive) | > 100 µM (inactive) | > 100 µM (inactive) | > 100 µM (inactive) | 80.4 µM (inactive) | > 100 µM (inactive) | > 100 µM (inactive) | > 100 µM (inactive) |  | > 100 µM (inactive) | > 100 µM (inactive) | > 100 µM (inactive)
Cc1ccc(NC(=O)CCC(=O)C2CC(=O)CC/C2=N\NC(=O)c2cc3ccccc3cc2O)cc1C (configuration not stated) | 4.13 µM (inactive) | 11.5 µM (inactive) | 18.7 µM (inactive) | 15.7 µM (inactive) | 16.4 µM (inactive) | 30.1 µM (inactive) | 67.9 µM (inactive) | 19.6 µM (inactive) | 17.7 µM (inactive) |  | 38.5 µM (inactive) | 20.7 µM (inactive) | 17.1 µM (inactive) | 25.8 µM (inactive) | 19 µM (inactive) | 25.2 µM (inactive) |  | 25.1 µM (inactive) | 23 µM (inactive) | 
COc1ccc(C2S/C(=C\c3cc(OC)c(OC)c(OC)c3)C(=O)N2NC(=O)Cc2ccccc2)cc1 (configuration not stated) | 48 µM (inactive) | > 100 µM (inactive) |  | > 100 µM (inactive) | > 100 µM (inactive) | > 100 µM (inactive) | > 100 µM (inactive) | 89.9 µM (inactive) | 44.3 µM (inactive) |  | > 100 µM (inactive) | 76.6 µM (inactive) | 67.9 µM (inactive) | > 100 µM (inactive) | > 100 µM (inactive) | > 100 µM (inactive) |  | > 100 µM (inactive) | > 100 µM (inactive) | 
Nc1ccn(CCOC(c2ccccc2)P(=O)(O)O)c(=O)n1 (configuration not stated) | > 100 µM (inactive) | > 100 µM (inactive) | > 100 µM (inactive) | > 100 µM (inactive) |  | > 100 µM (inactive) | > 100 µM (inactive) | > 100 µM (inactive) | > 100 µM (inactive) |  | > 100 µM (inactive) | > 100 µM (inactive) | 12.2 µM (inactive) | > 100 µM (inactive) | > 100 µM (inactive) | > 100 µM (inactive) |  | > 100 µM (inactive) | > 100 µM (inactive) | 
CC(C)(C)OC(=O)N1C2CCCC23O[C@@H]1c1cc2c(cc1C3=O)OCO2 (some centres not stated) | 39.6 µM (inactive) | 21.1 µM (inactive) |  | 24.9 µM (inactive) | > 100 µM (inactive) | 19.5 µM (inactive) | 27.3 µM (inactive) | 36.3 µM (inactive) | 24.6 µM (inactive) |  | 14.5 µM (inactive) | 52.8 µM (inactive) | 12.6 µM (inactive) | 34.5 µM (inactive) | 9.57 µM (inactive) | 34 µM (inactive) |  | 29.4 µM (inactive) | 81.1 µM (inactive) | 
C=C1C(=O)C23C(O)CC4C(C)(C)CCC(O)C4(C)C2CC(OC(C)=O)C1[C@H]3O (some centres not stated) | 15.3 µM (inactive) | 0.442 µM (active) | 4.06 µM (inactive) | 2.44 µM (inactive) |  | 3.5 µM (inactive) | 17.3 µM (inactive) | 2 µM (inactive) | 1.28 µM (inactive) | > 10 µM (inactive) | 0.351 µM (active) | 3.28 µM (inactive) | 8.61 µM (inactive) | 2.4 µM (inactive) | 2.37 µM (inactive) | 4.25 µM (inactive) |  | 4.06 µM (inactive) | 9.31 µM (inactive) | 7.96 µM (inactive)
CCOC(=O)CCC(NC(=O)OCc1ccccc1)C(=O)NC(CCC(=O)OCC)C(=O)NC(Cc1ccc([N+](=O)[O-])cc1)C(=O)NC(CCC(=O)OCC)C(=O)NC(CCC(=O)OCC)C(=O)OCC (configuration not stated) (Cbz-E(OEt)E(OEt)[Phe(4-NO2)]E(OEt)E(OEt)-OEt; configuration not given here) | > 100 µM (inactive) | > 100 µM (inactive) |  | > 100 µM (inactive) | > 100 µM (inactive) |  | > 100 µM (inactive) | > 100 µM (inactive) | > 100 µM (inactive) | > 100 µM (inactive) | > 100 µM (inactive) | > 100 µM (inactive) | > 100 µM (inactive) | > 100 µM (inactive) | > 100 µM (inactive) | > 100 µM (inactive) | > 100 µM (inactive) | > 100 µM (inactive) |  | > 100 µM (inactive)
